Measured values reported in BindingDB's records for patent US11834430 (Agency For Science, Technology and Research, 2023).

Target: Protein-S-isoprenylcysteine O-methyltransferase (Homo sapiens, UniProt O60725)
Assay: ICMT Biochemical Assay
Procedure: An ICMT enzymatic assay was developed using Promega's Methyltransferase-GloTMreagents. In the assay, ICMT catalyzes the methylation of the N-Acetyl-S-farnesyl-L-cysteine by transferring a methyl group from SAM to the farnesylated cysteine and further converts the SAM to SAH. The methyltransferase activity is measured based on the amount of SAH produced from the reaction through the use of coupling enzymes that convert the SAH to ATP. […] A final concentration of 2.0 μM and 20 μM of SAM and peptide were added and further incubated for 90 minutes at room temperature before adding the MTase Glo and detection reagent. Reaction signals were detected using microplate readers on luminescent mode (Satire Tecan).

Sequence of Protein-S-isoprenylcysteine O-methyltransferase (O60725 whole entry): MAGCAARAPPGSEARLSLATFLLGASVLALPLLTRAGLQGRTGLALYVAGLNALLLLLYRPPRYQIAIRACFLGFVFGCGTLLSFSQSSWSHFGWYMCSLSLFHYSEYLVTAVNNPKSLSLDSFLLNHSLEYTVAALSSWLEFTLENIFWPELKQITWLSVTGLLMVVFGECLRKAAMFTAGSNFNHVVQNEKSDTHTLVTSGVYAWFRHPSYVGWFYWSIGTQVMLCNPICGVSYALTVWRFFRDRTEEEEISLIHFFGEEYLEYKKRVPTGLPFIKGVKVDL

Row | IC50 [nM] | SMILES
1 | 76 | COc1cc(Cl)ccc1OCCOc1cccc(-n2ccnc2C)c1 [US11834430, Compound 45]
2 | 18 | N#Cc1ccc(OCCOc2ccc(F)c(-c3ccnn3C3CC3)c2)c(F)c1 [US11834430, Compound 88]
